# Tested on: circulating CD8+ TSP cells and CD34+ SP+ HSCs
# Conditions: human peripheral blood
# Text: Peripheral blood mononuclear cells (PBMCs) from healthy donors were isolated from buffy coats purchased from New York Blood Center. Gut T cells were obtained from uninvolved intestine in patients undergoing surgery for diverticular disease or gut biopsies. Bone marrow aspirates were obtained from patients with cancer undergoing diagnostic bone marrow biopsies. In some patients, blood samples were collected before and after stem cell mobilization protocol with plerixafor. […] The cells were then washed in ice-cold Hoechst wash buffer and analyzed with BD LSR-II containing UV laser.
compound,measurement,setting,value
"c1cc(CN2CCCNCCNCCCNCC2)ccc1CN1CCCNCCNCCCNCC1 [plerixafor, Plerixafor]",circulating CD8+ TSP cells,"baseline vs after mobilization, within 24 hours of injection, n=6",marked increase
same,mobilization of CD34+ SP+ HSCs,concurrent with the CD8+ TSP increase,mobilization

# Source: patent publication US11213546B2, “Methods to mobilize tissue resident cells for adoptive t cell therapy” (Emory University, priority 2017, dated 2022)
